Laboratory results as given in US7932277B2, “Peptide inhibitors of hepatitis C virus replication” (InterMune, Inc., priority 2007, dated 2011).

What was measured:
[1] = target: T1, NS3/NS4A-2 (full-length HCV NS3 protease complexed with NS4A-2) (Hepatitis C virus genotype 1a, UniProt P27958); experiment: NS3 inhibition assay (NS3-NS4 protease assay); format: biochemical; settings: recombinant full-length NS3/NS4A-2, RETS1 substrate, kinetic fluorescence read; read-out: NS3-NS4 IC50
T1 construct: Recombinant E. coli or Baculovirus full-length NS3; host or cells: E. coli or baculovirus (insect cells)
Experimental: Recombinant E. coli or Baculovirus full-length NS3 was diluted to 3.33 μM with assay buffer and transferred material to an eppendorf tube and place in water bath in 4° C. refrigerator. The appropriate amount of NS4A-2 to 8.3 mM in assay buffer was added to equal the volume of NS3 in step 2.1.1 (conversion factor −3.8 mg/272 μL assay buffer). The material was transferred to an eppendorf tube and place in water bath in 4° C. refrigerator.
After equilibration to 4° C., equal volumes of NS3 and NS4A-2 solutions were combined in an eppendorf tube, mix gently with a manual pipettor, and incubate mixture for 15 minutes in the 4° C. water bath. Final concentrations in the mixture are 1.67 μM NS3, 4.15 mM NS4A-2 (2485-fold molar excess NS4A-2).
After 15 minutes at 4° C., the NS3/NS4A-2 eppendorf tube was removed and place it in a room temperature water bath for 10 minutes. NS3/NS4A-2 was aliquoted at appropriate volumes and store at −80° C. (E. coli NS3 run at 2 nM in assay, aliquot at 25 μL. BV NS3 run at 3 nM in assay, aliquot at 30 μL).
Sample compounds were dissolved to 10 mM in DMSO then diluted to 2.5 mM (1:4) in DMSO. Typically, compounds were added to an assay plate at 2.5 mM concentration, yielding upon dilution a starting concentration of 50 microM in the assay inhibition curve. Compounds were serial diluted in assay buffer to provide test solutions at lower concentrations.
The E. coli. NS3/NS4A-2 was diluted to 4 nM NS3 (1:417.5 of 1.67 μM stock−18 μL1.67 μM stock+7497 μL assay buffer). The BV NS3/NS4A-2 was diluted to 6 nM NS3 (1:278.3 of 1.67 μM stock−24 μL1.67 μM stock+6655 μL assay buffer). Using the manual multichannel pipettor, careful not to introduce bubbles into the plate, add 50 μL assay buffer to wells A01-H01 of a black Costar 96-well polypropylene storage plate.
Using the manual multichannel pipettor, careful not to introduce bubbles into the plate, add 50 μL of diluted NS3/NS4A-2 from step 2.2.6 to wells A02-H12 of plate in step 2.2.7. Using the manual multichannel pipettor, careful not to introduce bubbles into the plate, transfer 25 μL of the wells in drug dilution plate in step 2.2.5 to corresponding wells in assay plate in step 2.2.8. Change tips on multichannel pipettor for each row of compounds transferred. Using the manual multichannel pipettor, careful not to introduce bubbles into the plate, mix the wells from the assay plate in step 2.2.9 by aspirating and dispensing 35 μL of the 75 μL in each well five times. Change tips on multichannel pipettor for each row of wells mixed. Cover plate with a polystyrene plate lid and pre-incubate the plate from step 2.2.10 containing NS3 protease and sample compounds 10 minutes at room temperature. While plate from step 2.2.11 is pre-incubating, dilute RETS1 substrate in a 15 mL polypropylene centrifuge tube. Dilute RETS1 substrate to 8 μM (1:80.75 of 646 μM stock−65 μL 646 μM stock+5184 μL assay buffer).
After the plate in step is done pre-incubating, and using the manual multichannel, add 25 μL of substrate to all wells on the plate. Quickly mix the plate as in step 2.2.10, mixing 65 μL of the 100 μL in the wells.
Read the plate in kinetic mode on the Molecular Devices SpectraMax Gemini XS plate reader. Reader settings: Read time: 30 minutes, Interval: 36 seconds, Reads: 51, Excitation λ: 335 nm, Emission λ: 495 nm, cutoff: 475 nm, Automix: off, Calibrate: once, PMT: high, Reads/well: 6, Vmax pts: 21 or 28/51 depending on length of linearity of reaction
IC50s are determined using a four parameter curve fit equation, and converted to Ki's using the following Km's: • Full-length E. coli NS3−2.03 μM • Full-length BV NS3−1.74 μM • where Ki=IC50/(1+[S]/Km)) • Quantitation by ELISA of the Selectable Marker Protein, Neomycin Phosphotransferase II (NPTII) in the HCV Sub-Genomic Replicon, GS4.3

[2] = system: HCV sub-genomic replicon (1377/NS3-3') in HuH-7 hepatoma cells (GS4.3); experiment: Quantitation by ELISA of NPTII in the HCV sub-genomic replicon, GS4.3; format: cell-based, hepatitis C virus (HCV); settings: Hepatitis C virus, Huh-7; GS4.3 cells, 72 h incubation, NPTII ELISA; read-out: Replicon EC50
Experimental: The HCV sub-genomic replicon (1377/NS3-3′, accession No. AJ242652), stably maintained in HuH-7 hepatoma cells, was created by Lohmann et al. Science 285: 110-113 (1999). The replicon-containing cell culture, designated GS4.3, was obtained from Dr. Christoph Seeger of the Institute for Cancer Research, Fox Chase Cancer Center, Philadelphia, Pa.
GS4.3 cells were maintained at 37° C., 5% CO2, in DMEM (Gibco 11965-092) supplemented with L-glutamine 200 mM (100×) (Gibco25030-081), non-essential amino acids (NEAA) (Biowhittaker 13-114E), heat-inactivated (HI) Fetal Bovine Serum (FBS) (Hyclone SH3007.03) and 750 μg/mL geneticin (G418)(Gibco 10131-035). Cells were sub-divided 1:3 or 4 every 2-3 days.
24 h prior to the assay, GS4.3 cells were collected, counted, and plated in 96-well plates (Costar 3585) at 7500 cells/well in 100 μL standard maintenance medium (above) and incubated in the conditions above. To initiate the assay, culture medium was removed, cells were washed once with PBS (Gibco 10010-023) and 90 μl Assay Medium (DMEM, L-glutamine, NEAA, 10% HI FBS, no G418) was added. Inhibitors were made as a 10× stock in Assay Medium, (3-fold dilutions from 10 μM to 56 pM final concentration, final DMSO concentration 1%), 10 μL were added to duplicate wells, plates were rocked to mix, and incubated as above for 72 h.
An NPTII Elisa kit was obtained from AGDIA, Inc. (Compound direct ELISA test system for Neomycin Phosphotransferase II, PSP 73000/4800). Manufacturer's instructions were followed, with some modifications. 10×PEB-1 lysis buffer was made up to include 500 μM PMSF (Sigma P7626, 50 mM stock in isopropanol). After 72 h incubation, cells were washed once with PBS and 150 μL PEB-1 with PMSF was added per well. Plates were agitated vigorously for 15 minutes, room temperature, then frozen at −70° C. Plates were thawed, lysates were mixed thoroughly, and 100 μl were applied to an NPTII Elisa plate. A standard curve was made. Lysate from DMSO-treated control cells was pooled, serially diluted with PEB-1 with PMSF, and applied to duplicate wells of the ELISA plate, in a range of initial lysate amount of 150 μL-2.5 μL. In addition, 100 μL buffer alone was applied in duplicate as a blank. Plates were sealed and gently agitated at room temperature for 2 h. Following capture incubation, the plates were washed 5×300 μL with PBS-T (0.5% Tween-20, PBS-T was supplied in the ELISA kit). For detection, a 1× dilution of enzyme conjugate diluent MRS-2 (5×) was made in PBS-T, into which 1:100 dilutions of enzyme conjugates A and B were added, as per instructions. Plates were resealed, and incubated with agitation, covered, room temperature, for 2 h. The washing was then repeated and 100 μL of room temperature TMB substrate was added. After approximately 30 minutes incubation (room temperature, agitation, covered), the reaction was stopped with 50 μL 3M sulfuric acid. Plates were read at 450 nm on a Molecular Devices Versamax plate reader.
Inhibitor effect was expressed as a percentage of DMSO-treated control signal, and inhibition curves were calculated using a 4-parameter equation: y=A+((B−A)/(1+((C/x)^D))), where C is half-maximal activity or EC50.

T1 sequence (P27958 1027-1657, one chain of several): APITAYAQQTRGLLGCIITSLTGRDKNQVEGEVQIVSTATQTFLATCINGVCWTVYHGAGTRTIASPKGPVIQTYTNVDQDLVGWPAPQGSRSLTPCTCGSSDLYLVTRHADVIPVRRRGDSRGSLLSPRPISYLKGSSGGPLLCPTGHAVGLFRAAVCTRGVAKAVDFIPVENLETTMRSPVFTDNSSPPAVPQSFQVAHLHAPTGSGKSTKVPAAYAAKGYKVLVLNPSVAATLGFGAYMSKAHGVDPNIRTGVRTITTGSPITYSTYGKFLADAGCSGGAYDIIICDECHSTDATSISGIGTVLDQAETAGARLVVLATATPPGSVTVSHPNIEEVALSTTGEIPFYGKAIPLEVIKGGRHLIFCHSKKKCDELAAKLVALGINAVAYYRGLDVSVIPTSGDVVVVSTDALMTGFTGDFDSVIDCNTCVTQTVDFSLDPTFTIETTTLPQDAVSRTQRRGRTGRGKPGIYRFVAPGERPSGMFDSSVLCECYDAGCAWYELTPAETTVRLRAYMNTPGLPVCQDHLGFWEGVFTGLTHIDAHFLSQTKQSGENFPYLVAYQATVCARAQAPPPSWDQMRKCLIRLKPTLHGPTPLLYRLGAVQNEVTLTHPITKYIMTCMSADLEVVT

Compound	IC50 [1] [nM]	EC50 [2] [nM]
C=C[C@@H]1C[C@]1(NC(=O)[C@@H]1C[C@@H](OC(=O)N2Cc3cccc(F)c3C2)CN1C(=O)[C@@H](Nc1cncc(C(F)(F)F)c1)C(C)C)C(=O)NS(=O)(=O)C1CC1 [Compound 44, [(3R,5S)-5-((1R,2S)-1-(cyclopropylsulfonylcarbamoyl)-2-vinylcyclopropylcarbamoyl)-1-((S)-3-methyl-2-(5-(trifluoromethyl)pyridin-3-ylamino)butanoyl)pyrrolidin-3-yl]4-fluoroisoindoline-2-carboxylate]	< 100	100 to 1000
CC[C@@H]1C[C@]1(NC(=O)[C@@H]1C[C@@H](OC(=O)N2Cc3cccc(F)c3C2)CN1C(=O)[C@@H](Nc1cccc(C(C)(C)C)c1)C(C)C)C(=O)NS(=O)(=O)C1CC1 [Compound 45, [(3R,5S)-1-((S)-2-(3-tert-butylphenylamino)-3-methylbutanoyl)-5-((1R,2R)-1-(cyclopropylsulfonylcarbamoyl)-2-ethylcyclopropylcarbamoyl)pyrrolidin-3-yl]4-fluoroisoindoline-2-carboxylate]	< 100	< 100
CC[C@@H]1C[C@]1(NC(=O)[C@@H]1C[C@@H](OC(=O)N2Cc3cccc(Cl)c3C2)CN1C(=O)[C@@H](Nc1cccc(C(C)(C)C)c1)C(C)C)C(=O)NS(=O)(=O)C1CC1 [Compound 46, [(3R,5S)-1-((S)-2-(3-tert-butylphenylamino)-3-methylbutanoyl)-5-((1R,2R)-1-(cyclopropylsulfonylcarbamoyl)-2-ethylcyclopropylcarbamoyl)pyrrolidin-3-yl]4-chloroisoindoline-2-carboxylate]	< 100	< 100
CC[C@@H]1C[C@]1(NC(=O)[C@@H]1C[C@@H](OC(=O)N2Cc3cccc(F)c3C2)CN1C(=O)[C@@H](Nc1cccc(C(F)(F)F)c1)C(C)C)C(=O)NS(=O)(=O)C1CC1 [Compound 47, [(3R,5S)-5-((1R,2R)-1-(cyclopropylsulfonylcarbamoyl)-2-ethylcyclopropylcarbamoyl)-1-((S)-3-methyl-2-(3-(trifluoromethyl)phenylamino)butanoyl)pyrrolidin-3-yl]4-fluoroisoindoline-2-carboxylate]	< 100	< 100
CC[C@@H]1C[C@]1(NC(=O)[C@@H]1C[C@@H](OC(=O)N2Cc3cccc(F)c3C2)CN1C(=O)[C@@H](Nc1cncc(C(F)(F)F)c1)C(C)C)C(=O)NS(=O)(=O)C1CC1 [Compound 48, [(3R,5S)-5-((1R,2R)-1-(cyclopropylsulfonylcarbamoyl)-2-ethylcyclopropylcarbamoyl)-1-((S)-3-methyl-2-(5-(trifluoromethyl)pyridin-3-ylamino)butanoyl)pyrrolidin-3-yl]4-fluoroisoindoline-2-carboxylate]	< 100	100 to 1000
CC[C@@H]1C[C@]1(NC(=O)[C@@H]1C[C@@H](OC(=O)N2Cc3cccc(F)c3C2)CN1C(=O)[C@@H](Nc1cccc(C)c1)C(C)C)C(=O)NS(=O)(=O)C1CC1 [Compound 49, [(3R,5S)-5-((1R,2R)-1-(cyclopropylsulfonylcarbamoyl)-2-ethylcyclopropylcarbamoyl)-1-((S)-3-methyl-2-(m-tolylamino)butanoyl)pyrrolidin-3-yl]4-fluoroisoindoline-2-carboxylate]	< 100	100 to 1000
CC[C@@H]1C[C@]1(NC(=O)[C@@H]1C[C@@H](OC(=O)N2Cc3cccc(F)c3C2)CN1C(=O)[C@@H](Nc1cccc(Cl)c1)C(C)C)C(=O)NS(=O)(=O)C1CC1 [Compound 50, [(3R,5S)-1-((S)-2-(3-chlorophenylamino)-3-methylbutanoyl)-5-((1R,2R)-1-(cyclopropylsulfonylcarbamoyl)-2-ethylcyclopropylcarbamoyl)pyrrolidin-3-yl]4-fluoroisoindoline-2-carboxylate]	< 100	< 100
CC[C@@H]1C[C@]1(NC(=O)[C@@H]1C[C@@H](OC(=O)N2Cc3cccc(F)c3C2)CN1C(=O)[C@@H](Nc1cccc(C#N)c1)C(C)C)C(=O)NS(=O)(=O)C1CC1 [Compound 51, [(3R,5S)-1-((S)-2-(3-cyanophenylamino)-3-methylbutanoyl)-5-((1R,2R)-1-(cyclopropylsulfonylcarbamoyl)-2-ethylcyclopropylcarbamoyl)pyrrolidin-3-yl]4-fluoroisoindoline-2-carboxylate]	< 100	100 to 1000
CC[C@@H]1C[C@]1(NC(=O)[C@@H]1C[C@@H](OC(=O)N2Cc3cccc(F)c3C2)CN1C(=O)[C@@H](Nc1ccc(F)c(C(F)(F)F)c1)C(C)C)C(=O)NS(=O)(=O)C1CC1 [Compound 52, [(3R,5S)-5-((1R,2R)-1-(cyclopropylsulfonylcarbamoyl)-2-ethylcyclopropylcarbamoyl)-1-((S)-2-(4-fluoro-3-(trifluoromethyl)phenylamino)-3-methylbutanoyl)pyrrolidin-3-yl]4-fluoroisoindoline-2-carboxylate]	< 100	< 100
